Experimental data: PMC5931096, “A Phase I study of the novel immunomodulatory agent PG545 (pixatimod) in subjects with advanced solid tumours” (British Journal of Cancer, 2018)

Experiment: Phase I dose-escalation: safety, tolerability, DLT and MTD of weekly 1-h IV infusion
Assay type: in vivo
Conditions: Safety Set
Experimental: The study was an open-label, multicentre, phase 1 dose-escalation study using a 3 + 3 design. The primary objective was to determine the MTD of weekly administered PG545 via IV infusion. Secondary objectives were to characterize safety, tolerability, clinical activity, PK and PD biomarkers.
Patients continued treatment until disease progression, unacceptable toxicity or withdrawal (either voluntarily or investigator-decision).
All patients were assessed for safety, those who received at least one dose of PG545 were evaluated for efficacy. Safety assessment included the incidence of all adverse events (AEs), irrespective of relationship to study drug, according to the National Cancer Institute Common Terminology Criteria for Adverse Events, version 4.0, and the incidence of patients experiencing dose modifications and/or premature discontinuation of study drug. Dose-limiting toxicities (DLTs) used to determine the MTD were defined as occurring during Cycle 1 of treatment only and related to PG545 according to investigator assessment. If no DLT occurred in the first three subjects, the next three-subject cohort was enrolled at the next highest available dose level. If a single DLT occurred, an additional three subjects was enrolled at the same dose level. Dose escalation continued until two subjects of the cohort experienced a DLT; this was defined as the toxic dose level. The dose-escalation phase was completed and MTD determined by reducing the dose to the next lowest dose compared to the toxic dose and expanding this cohort to at least 6 subjects.

In the case of `CC(C)CCC[C@@H](C)[C@H]1CC[C@H]2[C@@H]3CC[C@H]4C[C@@H](O[C@@H]5O[C@H](COS(=O)(=O)O)[C@@H](O[C@H]6O[C@H](COS(=O)(=O)O)[C@@H](O[C@H]7O[C@H](COS(=O)(=O)O)[C@@H](O[C@H]8O[C@H](COS(=O)(=O)O)[C@@H](OS(=O)(=O)O)[C@H](OS(=O)(=O)O)[C@H]8OS(=O)(=O)O)[C@H](OS(=O)(=O)O)[C@H]7OS(=O)(=O)O)[C@H](OS(=O)(=O)O)[C@H]6OS(=O)(=O)O)[C@H](OS(=O)(=O)O)[C@H]5OS(=O)(=O)O)CC[C@]4(C)[C@H]3CC[C@]12C` [PG545], the “TEAE: Blood creatinine increased” value (Mild, Unrelated) is reported as 1 (4.3%), the “TEAE: Chest discomfort” value (Mild, Unrelated) is reported as 1 (4.3%) and the “TEAE: Chest pain” value (Mild, Unrelated) is reported as 2 (8.7%). For the same molecule, the “TEAE: Constipation” value (Mild, Unrelated) was 5 (21.7%), the “TEAE: Cough” value (Mild, Unrelated) was 2 (8.7%) and the “TEAE: Decreased appetite” value (Mild, Unrelated) was 1 (4.3%). The “TEAE: Deep vein thrombosis” value (Mild, Unrelated) was 1 (4.3%), the “TEAE: Depression” value (Mild, Unrelated) was 3 (13.0%) and the “TEAE: Diarrhoea” value (Mild, Unrelated) was 3 (13.0%). The “TEAE: Dry mouth” value (Mild, Unrelated) was 1 (4.3%), the “TEAE: Dry skin” value (Mild, Unrelated) was 1 (4.3%) and the “TEAE: Dyspepsia” value (Mild, Unrelated) was 1 (4.3%). For the same molecule, the “TEAE: Dyspnoea” value (Mild, Unrelated) was 5 (21.7%), the “TEAE: Fatigue” value (Mild, Unrelated) was 2 (8.7%) and the “TEAE: Fungal infection” value (Mild, Unrelated) was 1 (4.3%). For the same molecule, the “TEAE: Gastroesophageal reflux disease” value (Mild, Unrelated) was 1 (4.3%), the “TEAE: Gastrointestinal disorders” value (Mild, Unrelated) was 13 (56.5%) and the “TEAE: General disorders and administration site conditions” value (Mild, Unrelated) was 7 (30.4%). The “TEAE: Haematochezia” value (Mild, Unrelated) was 1 (4.3%), the “TEAE: Headache” value (Mild, Unrelated) was 1 (4.3%) and the “TEAE: Hypercalcaemia” value (Mild, Unrelated) was 1 (4.3%). The “TEAE: Hypertension (second line of this name)” value (Mild, Unrelated) was 1 (4.3%), the “TEAE: Hypokalaemia” value (Mild, Unrelated) was 1 (4.3%) and the “TEAE: Infections and infestations” value (Mild, Unrelated) was 4 (17.4%). The “TEAE: Influenza like illness” value (Mild, Unrelated) was 1 (4.3%), the “TEAE: Insomnia” value (Mild, Unrelated) was 3 (13.0%) and the “TEAE: Investigations” value (Mild, Unrelated) was 3 (13.0%). The “TEAE: Lethargy” value (Mild, Unrelated) was 2 (8.7%), the “TEAE: Malaise” value (Mild, Unrelated) was 1 (4.3%) and the “TEAE: Metabolism and nutritional disorders” value (Mild, Unrelated) was 2 (8.7%). For the same molecule, the “TEAE: Mucosal inflammation” value (Mild, Unrelated) was 2 (8.7%), the “TEAE: Musculoskeletal and connective tissue disorders” value (Mild, Unrelated) was 5 (21.7%) and the “TEAE: Musculoskeletal chest pain” value (Mild, Unrelated) was 1 (4.3%). For the same molecule, the “TEAE: Nausea” value (Mild, Unrelated) was 3 (13.0%), the “TEAE: Nervous system disorders” value (Mild, Unrelated) was 5 (21.7%) and the “TEAE: Neutrophil count increased” value (Mild, Unrelated) was 1 (4.3%). The “TEAE: Onycholysis” value (Mild, Unrelated) was 1 (4.3%), the “TEAE: Oropharyngeal pain” value (Mild, Unrelated) was 1 (4.3%) and the “TEAE: Pain” value (Mild, Unrelated) was 1 (4.3%). For the same molecule, the “TEAE: Pain in extremity” value (Mild, Unrelated) was 2 (8.7%), the “TEAE: Pruritus” value (Mild, Unrelated) was 1 (4.3%) and the “TEAE: Psychiatric disorders” value (Mild, Unrelated) was 5 (21.7%). The “TEAE: Respiratory, thoracic and mediastinal disorders” value (Mild, Unrelated) was 6 (26.1%), the “TEAE: Skin and subcutaneous tissue disorders” value (Mild, Unrelated) was 3 (13.0%) and the “TEAE: Upper respiratory tract infection” value (Mild, Unrelated) was 2 (8.7%). The “TEAE: Vascular disorders” value (Mild, Unrelated) was 2 (8.7%), the “TEAE: Vomiting” value (Mild, Unrelated) was 5 (21.7%) and the “TEAE: Vulvovaginal candidiasis” value (Mild, Unrelated) was 1 (4.3%). The “TEAE: White blood cell count increased” value (Mild, Unrelated) was 1 (4.3%), the “TEAE: aPTT prolonged” value (Mild, Unrelated) was 1 (4.3%) and the “TEAE: At least one event” value (Moderate, Related) was 13 (56.5%). The “TEAE: Chills” value (Moderate, Related) was 2 (8.7%), the “TEAE: Constipation” value (Moderate, Related) was 1 (4.3%) and the “TEAE: Decreased appetite” value (Moderate, Related) was 2 (8.7%). For the same molecule, the “TEAE: Dehydration” value (Moderate, Related) was 1 (4.3%), the “TEAE: Diarrhoea” value (Moderate, Related) was 1 (4.3%) and the “TEAE: Dyspnoea” value (Moderate, Related) was 1 (4.3%). For the same molecule, the “TEAE: Fall” value (Moderate, Related) was 1 (4.3%), the “TEAE: Fatigue” value (Moderate, Related) was 2 (8.7%) and the “TEAE: GGT increased” value (Moderate, Related) was 1 (4.3%). For the same molecule, the “TEAE: Gastrointestinal disorders” value (Moderate, Related) was 4 (17.4%), the “TEAE: General disorders and administration site conditions” value (Moderate, Related) was 4 (17.5%) and the “TEAE: Hypercholesterolaemia” value (Moderate, Related) was 2 (8.7%). For the same molecule, the “TEAE: Hyperlipidaemia” value (Moderate, Related) was 1 (4.3%), the “TEAE: Hypertension” value (Moderate, Related) was 2 (8.7%) and the “TEAE: Infusion related reaction” value (Moderate, Related) was 4 (17.4%). For the same molecule, the “TEAE: Injury, poisoning and procedural complications” value (Moderate, Related) was 5 (21.7%), the “TEAE: Investigations” value (Moderate, Related) was 1 (4.3%) and the “TEAE: Lethargy” value (Moderate, Related) was 1 (4.3%). The “TEAE: Metabolism and nutritional disorders” value (Moderate, Related) was 4 (17.4%), the “TEAE: Nausea” value (Moderate, Related) was 1 (4.3%) and the “TEAE: Nervous system disorders” value (Moderate, Related) was 1 (4.3%). For the same molecule, the “TEAE: Pyrexia” value (Moderate, Related) was 1 (4.3%), the “TEAE: Respiratory, thoracic and mediastinal disorders” value (Moderate, Related) was 1 (4.3%) and the “TEAE: Vascular disorders” value (Moderate, Related) was 2 (8.7%). For the same molecule, the “TEAE: Vomiting” value (Moderate, Related) was 1 (4.3%), the “TEAE: AST increased” value (Moderate, Unrelated) was 1 (4.3%) and the “TEAE: Abdominal distension” value (Moderate, Unrelated) was 1 (4.3%). The “TEAE: Abdominal pain” value (Moderate, Unrelated) was 3 (13.0%), the “TEAE: Abdominal pain lower” value (Moderate, Unrelated) was 1 (4.3%) and the “TEAE: Abdominal pain upper” value (Moderate, Unrelated) was 2 (8.7%). The “TEAE: Anaemia” value (Moderate, Unrelated) was 2 (8.7%), the “TEAE: Arthralgia” value (Moderate, Unrelated) was 1 (4.3%) and the “TEAE: At least one event” value (Moderate, Unrelated) was 14 (60.9%). The “TEAE: Back pain” value (Moderate, Unrelated) was 3 (13.0%), the “TEAE: Blood ALP increased” value (Moderate, Unrelated) was 1 (4.3%) and the “TEAE: Blood and lymphatic system disorders” value (Moderate, Unrelated) was 2 (8.7%). For the same molecule, the “TEAE: Blood bilirubin increased” value (Moderate, Unrelated) was 1 (4.3%), the “TEAE: Constipation” value (Moderate, Unrelated) was 1 (4.3%) and the “TEAE: Cough” value (Moderate, Unrelated) was 1 (4.3%). For the same molecule, the “TEAE: Decreased appetite” value (Moderate, Unrelated) was 3 (13.0%), the “TEAE: Depression” value (Moderate, Unrelated) was 1 (4.3%) and the “TEAE: Diplopia” value (Moderate, Unrelated) was 1 (4.3%). The “TEAE: Dry mouth” value (Moderate, Unrelated) was 1 (4.3%), the “TEAE: Dyspnoea” value (Moderate, Unrelated) was 3 (13.0%) and the “TEAE: Eye disorders” value (Moderate, Unrelated) was 1 (4.3%). For the same molecule, the “TEAE: Fatigue” value (Moderate, Unrelated) was 3 (13.0%), the “TEAE: GGT increased” value (Moderate, Unrelated) was 1 (4.3%) and the “TEAE: Gait disturbance” value (Moderate, Unrelated) was 1 (4.3%). The “TEAE: Gastrointestinal disorders” value (Moderate, Unrelated) was 6 (26.1%).
